{"source": "ChEMBL document CHEMBL4602676", "about": "“Discovery and Development of 3-(6-Chloropyridine-3-yloxymethyl)-2-azabicyclo[3.1.0]hexane Hydrochloride (SUVN-911): A Novel, Potent, Selective, and Orally Active Neuronal Nicotinic Acetylcholine α4β2 Receptor Antagonist for the Treatment of Depression” (J Med Chem, 2020)", "key": {"[1]": {"target": "Neuronal acetylcholine receptor; alpha4/beta2 (Rattus norvegicus) (UniProt P09483+P12390)", "assay": "In vivo receptor occupancy at alpha4beta2 nAChR in Wistar rat pretreated for 15 mins followed by non radiolabelled ZW-104 tracer treatment and measured after 45 mins by LC-MS/MS analysis", "format": "functional, organism-based"}, "[2]": {"assay": "Terminal half life in Beagle dog at 1 mg/kg, iv by LC-MS/MS analysis", "format": "ADME, organism-based, Canis lupus familiaris", "settings": "in vivo, read-out: beta t1/2 (converted); call rule not given here"}, "[3]": {"assay": "Cmax in Wistar rat at 10 ml/kg, po or 2 ml/kg, iv measured upto 24 hrs by LC-MS/MS analysis", "format": "ADME, organism-based", "settings": "in vivo"}, "[4]": {"target": "T1, Neuronal acetylcholine receptor; alpha4/beta2 (Homo sapiens, UniProt P17787+P43681)", "T1 sequence (P17787 whole entry)": "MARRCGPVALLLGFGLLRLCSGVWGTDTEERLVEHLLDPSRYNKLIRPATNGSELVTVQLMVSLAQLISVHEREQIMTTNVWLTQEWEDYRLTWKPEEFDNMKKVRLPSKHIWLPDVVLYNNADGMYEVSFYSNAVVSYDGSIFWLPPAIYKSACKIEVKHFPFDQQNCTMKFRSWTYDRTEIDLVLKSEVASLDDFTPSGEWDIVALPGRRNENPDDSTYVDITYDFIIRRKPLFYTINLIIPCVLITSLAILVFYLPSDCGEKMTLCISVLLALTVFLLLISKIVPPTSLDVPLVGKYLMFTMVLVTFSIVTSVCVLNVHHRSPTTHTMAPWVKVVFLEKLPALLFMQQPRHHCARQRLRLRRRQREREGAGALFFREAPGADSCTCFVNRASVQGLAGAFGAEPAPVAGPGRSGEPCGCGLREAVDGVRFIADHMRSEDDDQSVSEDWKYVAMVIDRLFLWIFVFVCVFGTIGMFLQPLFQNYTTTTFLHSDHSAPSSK", "T1 sequence (P43681 whole entry)": "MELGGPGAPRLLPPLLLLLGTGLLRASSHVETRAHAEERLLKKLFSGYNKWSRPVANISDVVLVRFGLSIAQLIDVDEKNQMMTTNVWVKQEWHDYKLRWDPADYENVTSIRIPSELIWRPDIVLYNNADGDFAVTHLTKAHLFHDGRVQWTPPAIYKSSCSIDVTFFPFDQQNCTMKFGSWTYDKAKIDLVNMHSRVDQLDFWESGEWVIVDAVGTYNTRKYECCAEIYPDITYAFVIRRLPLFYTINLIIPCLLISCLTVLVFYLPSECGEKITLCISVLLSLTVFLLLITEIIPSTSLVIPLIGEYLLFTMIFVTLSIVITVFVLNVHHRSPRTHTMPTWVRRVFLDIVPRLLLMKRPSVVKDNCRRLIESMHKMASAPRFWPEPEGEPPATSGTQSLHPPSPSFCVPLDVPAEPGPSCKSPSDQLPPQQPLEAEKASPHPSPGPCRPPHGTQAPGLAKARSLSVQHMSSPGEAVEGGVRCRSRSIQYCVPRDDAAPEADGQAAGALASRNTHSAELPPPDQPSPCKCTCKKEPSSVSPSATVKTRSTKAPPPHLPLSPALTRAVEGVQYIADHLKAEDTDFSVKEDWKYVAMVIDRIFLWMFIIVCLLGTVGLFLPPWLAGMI", "assay": "Displacement of [3H]cytisine from human alpha4beta2 nAChR expressed in CHOK1 cell membrane by microbeta scintillation counting method", "format": "cell membranes, CHO-K1"}, "[5]": {"assay": "Genotoxicity in Salmonella typhimurium TA100 in absence of metabolic activation", "format": "toxicity", "settings": "salmonella enterica subsp. enterica serovar typhimurium"}, "[6]": {"system": "Rattus norvegicus", "assay": "Antidepressant activity in Wistar rat assessed as immobility time at 3.0 mg/kg, po measured for 5 mins by forced swim test (reference value: 241.9 to 281.6 sec)", "format": "functional"}, "[7]": {"target": "Neuronal acetylcholine receptor; alpha4/beta2 (Rattus norvegicus, UniProt P09483+P12390)", "sequence (P09483 whole entry)": "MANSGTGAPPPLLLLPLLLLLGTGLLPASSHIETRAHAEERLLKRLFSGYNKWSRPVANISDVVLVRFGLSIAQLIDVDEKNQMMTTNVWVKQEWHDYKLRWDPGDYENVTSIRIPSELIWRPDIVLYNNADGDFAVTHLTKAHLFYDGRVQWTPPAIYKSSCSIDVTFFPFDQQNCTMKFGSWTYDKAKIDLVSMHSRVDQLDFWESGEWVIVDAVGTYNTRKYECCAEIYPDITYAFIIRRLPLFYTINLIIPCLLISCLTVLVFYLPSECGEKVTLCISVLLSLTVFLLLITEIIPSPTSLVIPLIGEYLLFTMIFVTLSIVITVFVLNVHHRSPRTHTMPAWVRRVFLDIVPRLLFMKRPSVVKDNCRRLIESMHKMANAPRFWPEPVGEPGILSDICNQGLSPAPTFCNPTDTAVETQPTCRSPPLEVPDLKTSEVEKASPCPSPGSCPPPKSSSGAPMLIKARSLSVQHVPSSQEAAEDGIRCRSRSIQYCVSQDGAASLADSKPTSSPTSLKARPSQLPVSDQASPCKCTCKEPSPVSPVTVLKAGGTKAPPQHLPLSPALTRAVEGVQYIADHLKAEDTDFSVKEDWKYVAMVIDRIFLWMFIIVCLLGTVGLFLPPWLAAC", "sequence (P12390 whole entry)": "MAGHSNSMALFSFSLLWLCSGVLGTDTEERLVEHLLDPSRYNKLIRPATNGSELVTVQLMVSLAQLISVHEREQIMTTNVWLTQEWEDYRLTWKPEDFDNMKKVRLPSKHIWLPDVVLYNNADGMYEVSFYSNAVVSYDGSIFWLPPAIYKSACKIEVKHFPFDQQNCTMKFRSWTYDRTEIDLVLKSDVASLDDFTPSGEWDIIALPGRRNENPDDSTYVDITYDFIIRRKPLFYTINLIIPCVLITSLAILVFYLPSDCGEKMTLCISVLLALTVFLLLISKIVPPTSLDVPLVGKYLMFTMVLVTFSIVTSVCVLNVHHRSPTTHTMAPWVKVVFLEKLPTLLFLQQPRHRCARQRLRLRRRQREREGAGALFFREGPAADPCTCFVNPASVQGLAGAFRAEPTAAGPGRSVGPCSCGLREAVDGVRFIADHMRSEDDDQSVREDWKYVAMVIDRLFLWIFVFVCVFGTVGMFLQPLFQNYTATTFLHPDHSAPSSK", "assay": "In vivo receptor occupancy at alpha4beta2 nAChR in Wistar rat assessed as brain concentration pretreated for 15 mins followed by non radiolabelled ZW-104 tracer treatment and measured after 45 mins by LC-MS/MS analysis", "format": "functional, organism-based"}, "[8]": {"system": "Rattus norvegicus", "assay": "Antidepressant activity in Wistar rat assessed as reduction in immobility at 10 mg/kg, po administrated for 3 days and measured for 5 mins by forced swim test relative to control", "format": "functional", "parameters": "scale not given: the % may be the effect or the level left"}, "[9]": {"assay": "Metabolic stability in rat liver microsomes assessed as compound metabolism incubated for 30 mins in presence of NADPH by LC-MS/MS analysis", "format": "ADME, Microsome", "settings": "read-out: Drug metabolism"}, "[10]": {"target": "T2, Cytochrome P450 3A4 (Homo sapiens, UniProt P08684)", "T2 sequence (P08684 whole entry)": "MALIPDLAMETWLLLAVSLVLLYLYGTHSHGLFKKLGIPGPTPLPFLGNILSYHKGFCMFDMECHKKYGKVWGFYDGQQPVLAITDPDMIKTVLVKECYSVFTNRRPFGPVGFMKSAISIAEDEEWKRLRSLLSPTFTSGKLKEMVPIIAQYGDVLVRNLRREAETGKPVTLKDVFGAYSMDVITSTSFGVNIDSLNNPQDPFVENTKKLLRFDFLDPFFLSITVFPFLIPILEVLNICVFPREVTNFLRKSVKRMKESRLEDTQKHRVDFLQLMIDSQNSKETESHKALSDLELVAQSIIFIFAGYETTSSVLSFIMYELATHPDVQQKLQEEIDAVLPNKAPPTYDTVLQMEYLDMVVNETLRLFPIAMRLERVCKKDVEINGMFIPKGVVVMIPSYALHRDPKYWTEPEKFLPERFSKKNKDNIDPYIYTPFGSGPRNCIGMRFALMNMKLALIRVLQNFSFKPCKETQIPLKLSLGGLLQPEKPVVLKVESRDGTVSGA", "assay": "Induction of CYP3A4 (unknown origin)", "format": "ADME"}, "[11]": {"system": "Bone marrow cell", "assay": "Genotoxicity in mouse bone marrow cells assessed as non clastogenic by micronucleus assay", "format": "toxicity, cell-based"}, "[12]": {"assay": "Genotoxicity in Salmonella typhimurium TA1535 in absence of metabolic activation", "format": "toxicity", "settings": "salmonella enterica subsp. enterica serovar typhimurium"}, "[13]": {"assay": "Protein binding in human plasma assessed as unbound fraction at […] incubated for 6 hrs by LC-MS/MS analysis", "format": "ADME, cell-free"}, "[14]": {"assay": "Genotoxicity in Salmonella typhimurium TA1537 in absence of metabolic activation", "format": "toxicity", "settings": "salmonella enterica subsp. enterica serovar typhimurium"}, "[15]": {"assay": "Genotoxicity in Salmonella typhimurium TA1535 in presence of metabolic activation", "format": "toxicity", "settings": "salmonella enterica subsp. enterica serovar typhimurium"}, "[16]": {"target": "Cytochrome P450 2D6 (Homo sapiens, UniProt P10635)", "sequence (P10635 whole entry)": "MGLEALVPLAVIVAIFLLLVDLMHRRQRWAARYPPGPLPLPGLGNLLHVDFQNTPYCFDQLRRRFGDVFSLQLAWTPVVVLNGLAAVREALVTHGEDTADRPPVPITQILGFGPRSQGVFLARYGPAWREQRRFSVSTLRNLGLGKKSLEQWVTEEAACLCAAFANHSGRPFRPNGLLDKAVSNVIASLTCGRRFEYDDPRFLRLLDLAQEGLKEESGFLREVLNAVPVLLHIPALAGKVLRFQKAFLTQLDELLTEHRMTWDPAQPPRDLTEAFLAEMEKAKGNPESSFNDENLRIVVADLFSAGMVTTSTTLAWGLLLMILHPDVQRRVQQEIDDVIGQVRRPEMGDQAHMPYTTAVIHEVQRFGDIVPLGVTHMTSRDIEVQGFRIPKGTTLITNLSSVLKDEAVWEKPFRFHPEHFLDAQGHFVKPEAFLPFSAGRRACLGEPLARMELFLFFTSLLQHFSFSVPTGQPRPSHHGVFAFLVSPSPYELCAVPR", "assay": "Inhibition of CYP2D6 in human liver microsomes using dextromethorphan as substrate incubated for 12 min in presence of NADPH by LC-MS/MS analysis", "format": "ADME"}, "[17]": {"assay": "Genotoxicity in Salmonella typhimurium TA100 in presence of metabolic activation", "format": "toxicity", "settings": "salmonella enterica subsp. enterica serovar typhimurium"}, "[18]": {"assay": "Genotoxicity in Salmonella typhimurium TA1537 in presence of metabolic activation", "format": "toxicity", "settings": "salmonella enterica subsp. enterica serovar typhimurium"}, "[19]": {"assay": "Metabolic stability in human liver microsomes assessed as compound metabolism incubated for 30 mins in presence of NADPH by LC-MS/MS analysis", "format": "ADME, Microsome", "settings": "read-out: Drug metabolism"}, "[20]": {"target": "T1, Neuronal acetylcholine receptor; alpha4/beta2", "assay": "Antagonist activity at alpha4beta2 nAChR (unknown origin) expressed in HEK293 cells assessed as reduction in acetylcholine-induced currents at -80 mV holding potential by whole-cell patch clamp method", "format": "cell-based"}, "[21]": {"target": "T3, Solute carrier organic anion transporter family member 1B1 (Homo sapiens, UniProt Q9Y6L6)", "T3 sequence (Q9Y6L6 whole entry)": "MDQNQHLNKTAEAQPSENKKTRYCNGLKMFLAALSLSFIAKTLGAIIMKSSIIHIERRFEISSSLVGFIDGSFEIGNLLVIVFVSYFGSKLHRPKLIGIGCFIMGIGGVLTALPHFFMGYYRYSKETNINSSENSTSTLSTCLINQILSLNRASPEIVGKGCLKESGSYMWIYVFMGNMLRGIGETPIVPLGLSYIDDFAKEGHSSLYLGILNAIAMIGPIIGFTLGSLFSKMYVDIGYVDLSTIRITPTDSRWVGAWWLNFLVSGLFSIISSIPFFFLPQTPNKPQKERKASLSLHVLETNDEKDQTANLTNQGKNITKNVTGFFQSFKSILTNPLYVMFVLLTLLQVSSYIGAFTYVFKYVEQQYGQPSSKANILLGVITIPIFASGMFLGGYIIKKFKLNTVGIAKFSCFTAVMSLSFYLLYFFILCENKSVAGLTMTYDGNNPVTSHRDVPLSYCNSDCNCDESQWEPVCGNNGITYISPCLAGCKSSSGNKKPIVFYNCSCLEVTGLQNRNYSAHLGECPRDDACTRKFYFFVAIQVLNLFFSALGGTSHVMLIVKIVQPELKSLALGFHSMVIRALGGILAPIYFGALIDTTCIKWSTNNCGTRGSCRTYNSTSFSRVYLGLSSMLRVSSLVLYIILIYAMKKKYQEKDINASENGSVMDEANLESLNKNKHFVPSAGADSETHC", "assay": "Inhibition of OATP1B1 (unknown origin)"}, "[22]": {"system": "Caco-2", "assay": "Ratio of apparent permeability across basolateral to apical over apical to basolateral side in human Caco2 cells", "format": "ADME, cell-based"}, "[23]": {"assay": "Toxicity in telemetered Beagle dog assessed as change in blood pressure up to 25 mg/kg, po", "format": "organism-based, Canis lupus familiaris", "settings": "in vivo"}, "[24]": {"system": "Lymphocyte", "assay": "Genotoxicity in human peripheral lymphocytes assessed as non clastogenic by chromosomal aberration assay", "format": "toxicity, cell-based"}, "[25]": {"target": "T2, Cytochrome P450 3A4", "assay": "Inhibition of CYP3A4 in human liver microsomes using midazolam as substrate incubated for 2 min in presence of NADPH by LC-MS/MS analysis", "format": "ADME"}, "[26]": {"assay": "Genotoxicity in Salmonella typhimurium TA98 in presence of metabolic activation", "format": "toxicity", "settings": "salmonella enterica subsp. enterica serovar typhimurium"}, "[27]": {"system": "Rattus norvegicus", "assay": "Antidepressant activity in Wistar rat assessed as reduction in immobility at 1 mg/kg, po administrated for 3 days and measured for 5 mins by forced swim test relative to control", "format": "functional", "parameters": "scale not given: the % may be the effect or the level left"}, "[28]": {"target": "Voltage-gated inwardly rectifying potassium channel KCNH2 (Homo sapiens, UniProt Q12809)", "sequence (Q12809 whole entry)": "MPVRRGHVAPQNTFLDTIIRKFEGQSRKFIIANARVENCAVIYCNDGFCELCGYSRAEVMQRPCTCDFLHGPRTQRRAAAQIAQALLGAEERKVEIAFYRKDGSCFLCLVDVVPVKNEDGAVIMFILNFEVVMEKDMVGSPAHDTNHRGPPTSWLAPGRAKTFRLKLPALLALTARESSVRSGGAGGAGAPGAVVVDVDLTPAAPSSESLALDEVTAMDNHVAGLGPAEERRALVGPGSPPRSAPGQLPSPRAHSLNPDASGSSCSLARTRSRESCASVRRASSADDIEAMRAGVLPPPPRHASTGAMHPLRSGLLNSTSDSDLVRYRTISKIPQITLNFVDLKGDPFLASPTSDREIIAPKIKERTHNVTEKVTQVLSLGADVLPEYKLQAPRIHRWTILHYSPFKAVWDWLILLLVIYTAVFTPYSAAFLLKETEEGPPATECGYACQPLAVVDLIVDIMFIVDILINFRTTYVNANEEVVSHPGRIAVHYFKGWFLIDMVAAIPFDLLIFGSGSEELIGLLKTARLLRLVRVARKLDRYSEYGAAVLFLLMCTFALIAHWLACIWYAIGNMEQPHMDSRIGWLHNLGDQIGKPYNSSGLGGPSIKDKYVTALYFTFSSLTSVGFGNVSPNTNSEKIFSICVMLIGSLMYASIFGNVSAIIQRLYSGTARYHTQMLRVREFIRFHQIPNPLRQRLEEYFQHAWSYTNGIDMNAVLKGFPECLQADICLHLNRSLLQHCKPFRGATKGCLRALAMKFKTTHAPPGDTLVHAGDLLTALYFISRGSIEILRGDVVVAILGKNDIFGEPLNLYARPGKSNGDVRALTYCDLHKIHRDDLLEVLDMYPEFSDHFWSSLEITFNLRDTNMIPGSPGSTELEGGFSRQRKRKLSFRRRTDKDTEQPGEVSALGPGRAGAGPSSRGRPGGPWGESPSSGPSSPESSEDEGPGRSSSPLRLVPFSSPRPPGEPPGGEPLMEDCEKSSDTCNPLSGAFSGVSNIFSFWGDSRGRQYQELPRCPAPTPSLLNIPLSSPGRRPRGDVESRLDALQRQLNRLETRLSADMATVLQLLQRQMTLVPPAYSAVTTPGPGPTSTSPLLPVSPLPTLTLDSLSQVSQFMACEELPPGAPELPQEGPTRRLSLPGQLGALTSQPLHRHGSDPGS", "assay": "Inhibition of recombinant human ERG expressed in HEK293 at -80 mV holding potential by whole-cell patch clamp method", "format": "cell-based"}, "[29]": {"system": "Rattus norvegicus", "assay": "Antidepressant activity in Wistar rat assessed as immobility time at 10.0 mg/kg, po measured for 5 mins by forced swim test (reference value: 241.9 to 281.6 sec)", "format": "functional"}, "[30]": {"system": "Rattus norvegicus", "assay": "Antidepressant activity in Wistar rat assessed as reduction in immobility at 3 mg/kg, po administrated for 3 days and measured for 5 mins by forced swim test relative to control", "format": "functional", "parameters": "scale not given: the % may be the effect or the level left"}}, "data": [{"smiles": "Cl.Clc1ccc(OC[C@@H]2C[C@H]3C[C@H]3N2)cn1", "values": [{"measurement": "Activity", "setting": "[1]", "result": "Dose-dependent effect"}, {"measurement": "ED50", "setting": "[1]", "result": 1.61, "unit": "µM"}, {"measurement": "half-life", "setting": "[2]", "result": 1.9, "unit": "h"}, {"measurement": "Cmax", "setting": "[3]", "result": 1910, "unit": "ng/mL"}, {"measurement": "Ki", "setting": "[4]", "result": 0.0015, "unit": "µM"}, {"measurement": "Activity", "setting": "[5]", "result": "Non-Toxic"}, {"measurement": "Time", "setting": "[6]", "result": 155.9, "unit": "s"}, {"measurement": "EC50", "setting": "[7]", "result": 334, "unit": "µM"}, {"measurement": "Activity", "setting": "[8]", "result": 66.4, "unit": "%"}, {"measurement": "metabolised at 0.5 h", "setting": "[9]", "result": 32.2, "unit": "%"}, {"measurement": "Activity", "setting": "[10]", "result": "Not Active"}, {"measurement": "Activity", "setting": "[11]", "result": "Non-Toxic"}, {"measurement": "Activity", "setting": "[12]", "result": "Non-Toxic"}, {"measurement": "fraction unbound at 6 h", "setting": "[13]", "result": 0.21}, {"measurement": "Activity", "setting": "[14]", "result": "Non-Toxic"}, {"measurement": "Activity", "setting": "[15]", "result": "Non-Toxic"}, {"measurement": "IC50", "setting": "[16]", "result": 38.1, "unit": "µM"}, {"measurement": "Activity", "setting": "[17]", "result": "Non-Toxic"}, {"measurement": "Activity", "setting": "[18]", "result": "Non-Toxic"}, {"measurement": "metabolised at 0.5 h", "setting": "[19]", "result": 33.4, "unit": "%"}, {"measurement": "IC50", "setting": "[20]", "result": 7.31, "unit": "µM"}, {"measurement": "inhibition (INH)", "setting": "[21]", "result": "Not Active"}, {"measurement": "Ratio", "setting": "[22]", "result": 0.7}, {"measurement": "Activity", "setting": "[23]", "result": "Non-Toxic"}, {"measurement": "Activity", "setting": "[24]", "result": "Non-Toxic"}, {"measurement": "IC50", "setting": "[25]", "result": "> 45", "unit": "µM"}, {"measurement": "Activity", "setting": "[26]", "result": "Non-Toxic"}, {"measurement": "Activity", "setting": "[27]", "result": 29.35, "unit": "%"}, {"measurement": "IC50", "setting": "[28]", "result": "> 10", "unit": "µM"}, {"measurement": "Time", "setting": "[29]", "result": 81.5, "unit": "s"}, {"measurement": "Activity", "setting": "[30]", "result": 35.81, "unit": "%"}]}]}
